From patent publication US6313096A, “Inhibitors of trypsin-like enzymes” (Trigen Limited, priority 2000, dated 2001)

How the values were obtained:
thrombin [1] = target: T1, thrombin (Homo sapiens, UniProt P00734); assay: thrombin time determination; assay type: biochemical
Method: The activity of the product as a thrombin inhibitor is measured by determination of the thrombin time essentially as described in European Patent Application 293 881, page 51. Using a 1 micromolar concentration of inhibitor, a mean thrombin time of 114 seconds is found, compared with 16 seconds in the absence of inhibitor.

thrombin [2] = target: T1, thrombin; details: reversible and irreversible inhibitors of thrombin; cited from earlier work

Compound | thrombin inhibitor (in words) (thrombin [1]) | mean thrombin time (thrombin [1]; 1 micromolar concentration of inhibitor, 16 seconds in the absence of inhibitor) | inhibition in vitro (thrombin [2])
Z-D-Phe-Pro-BOMe-OPin [formula XII] | strong thrombin inhibitor | 114 s | 
NC(N)=NCCC[C@H](NC(=O)[C@@H]1CCCN1C(=O)[C@H](N)Cc1ccccc1)C(=O)CCl [D-Phe-Pro-Arg-CH2 Cl] |  |  | ~10^-8 M
N=C(N)NCCC[C@@H](C=O)NC(=O)[C@@H]1CCCN1C(=O)[C@H](N)Cc1ccccc1 [D-Phe-Pro-Arginal] |  |  | ~10^-8 M
